#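 48-hour exposure; five concentrations; linearly interpolated endpoints. GI50 = concentration required for 50% inhibition of growth. Definition used: TGI = concentration required for complete inhibition of growth.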
# What was measured:
# Experiment in all cases: NCI-60 cell line screen, 48 h
# HOP-18 NSCLC = test system: HOP-18 NSCLC
# HOP-62 NSCLC = test system: HOP-62 NSCLC
# M19-MEL melanoma = test system: M19-MEL melanoma
# MALME-3M melanoma = test system: MALME-3M melanoma
# RPMI-8226 leukemia = test system: RPMI-8226 leukemia
# SK-MEL-28 melanoma = test system: SK-MEL-28 melanoma
# SN12C renal = test system: SN12C renal
# SW-620 colon = test system: SW-620 colon
# TK-10 renal = test system: TK-10 renal
# UO-31 renal = test system: UO-31 renal
SMILES,TGI (HOP-18 NSCLC) [µM],TGI (HOP-62 NSCLC) [µM],TGI (M19-MEL melanoma) [µM],TGI (MALME-3M melanoma) [µM],TGI (RPMI-8226 leukemia) [µM],TGI (SK-MEL-28 melanoma) [µM],TGI (SN12C renal) [µM],TGI (SW-620 colon) [µM],TGI (TK-10 renal) [µM],TGI (UO-31 renal) [µM],GI50 (HOP-62 NSCLC) [µM],GI50 (MALME-3M melanoma) [µM],GI50 (RPMI-8226 leukemia) [µM],GI50 (SK-MEL-28 melanoma) [µM],GI50 (SN12C renal) [µM],GI50 (SW-620 colon) [µM],GI50 (TK-10 renal) [µM],GI50 (UO-31 renal) [µM],GI50 (HOP-18 NSCLC) [µM],GI50 (M19-MEL melanoma) [µM]
NC1c2ccccc2Nc2ccccc21,39.7,26.7,13.9,19,19.6,14.2,19,14.4,29.8,13.4,,,,,,,,,,
CCOC(=O)/C(=C/c1cccc(Cl)c1)N(CC)CC,84.6,77.8,> 100,> 100,> 100,> 100,> 100,> 100,> 100,> 100,,,,,,,,,,
CC1OC(=O)C(O)=C1O (centres undefined),> 100,> 100,> 100,> 100,> 100,,> 100,> 100,> 100,> 100,,,,,,,,,,
O=C1CSC(c2ccccc2Cl)N1c1nnc(Cn2cnnc2)o1 (centres undefined),,44.6,,30.6,95.5,45.8,76.3,27.5,81.9,> 100,17.6,6.84,5.77,12.3,23.1,4.73,22.8,30.8,,
O=C(O)/C(Cc1ccnc2ccccc12)=N\O,,> 100,,> 100,> 100,> 100,> 100,> 100,> 100,> 100,,,,,,,,,,
COC1CC(O)C(OC(=O)c2ccccc2)C(C)O1 (centres undefined),> 100,> 100,> 100,> 100,> 100,> 100,> 100,> 100,> 100,,,,,,,,,,,
N#CC1=C(N)Oc2c(ccc3ccccc23)C1c1cc(=O)oc2ccc(Cl)cc12 (centres undefined),,> 100,,67.8,20,74.9,45.4,> 100,73.1,> 100,0.672,18.1,1.68,10.6,2.59,0.411,16.9,1.82,,
Cc1ccc(N=C[N-]c2ccc(C)cc2)cc1.Cc1ccc(N=C[N-]c2ccc(C)cc2)cc1.O=C([O-])C(F)(F)F.O=C([O-])C(F)(F)F.[OH3+].[OH3+].[Rh+2].[Rh+2],71.4,> 100,89.4,56.1,40.6,39.2,> 100,> 100,> 100,> 100,> 100,28,18.9,14.1,34.9,31.9,50.2,> 100,27.7,33.3
Cc1cc(N(CCOS(C)(=O)=O)CCOS(C)(=O)=O)ccc1C(=O)O,,> 100,,> 100,> 100,> 100,> 100,> 100,> 100,> 100,> 100,> 100,> 100,> 100,> 100,> 100,> 100,> 100,,
